Data: PubChem BioAssay AID2060889 (Molecular Pharmacology Branch, DTP, NCI, 2025)

Tested on: LG0567-F671-PDC complex spheroids viability
Assay: Anticancer human tumor LG0567-F671-PDC patient-derived lung adenocarcinoma cell line growth inhibition [RAS]
Conditions: for IC50: curve of first compound; for viability, T/C: stronger effect = lower value
Source text: RAS pathway inhibitors in Combinations in Complex Spheroids
A high-throughput screen of multi-cell type tumor spheroids was designed to identify active combinations of RAS pathway inhibitors and targeted small molecules. Complex spheroids include a stromal component modeled by human endothelial cells (HUVEC) and fibroblasts modeled by human mesenchymal stem cells (MSCs). The concentration ranges selected for each drug and investigational agent were based upon clinically achievable concentrations if the clinical Cmax of the agent was known.
Compounds. The drugs and investigational agents: abemaciclib (NSC768073), cobimetinib (NSC768068), divarasib (GDC6063, NSC841802), docetaxel (NSC628503), GDC-1971 (RLY-1971, NSC841576), gemcitabine (NSC613327), inavolisib (NSC800729), ipatasertib (NSC767898), KB-0742 (NSC834161), MRTX-1133 (NSC836407), osimertinib (NSC779217), RMC-4630 (NSC839698), RMC-6236 (NSC851965), RMC-6291 (NSC852671), Ro-3306 (NSC812927), sapanisertib (NSC764658), SN-38 (NSC673596), staurosporine (NSC755774), SY5609 (NSC837396), and tovorafenib (DAY101, NSC766906), were obtained from the National Cancer Institute (NCI) Developmental Therapeutics Program Chemical Repository. The FDA-approved anticancer drug set is available from the NCI Developmental Therapeutics Program. […] The stock solutions were prepared in dimethyl sulfoxide (DMSO, Sigma-Aldrich, St. Louis, MO, cat. D2650) at 800-fold the tested concentration and stored at -70 degrees C prior to their use. All drugs and investigational agents were tested over a range starting from a high concentration at or near the clinical Cmax and decreasing in half-log increments. If the clinical Cmax for an agent had not been determined, the highest concentration tested was 10 microM.
Cell Culture. All cells were maintained in an incubator at 37 degrees C and 5% CO2 with 95% humidity. The PDC lines were cultured according to standard operating procedures established by the NCI PDMR. All PDCs were thawed and cultured in Matrigel-coated flasks prepared with a working solution of 1X Ham's F-12 nutrient mix, without supplementation (Invitrogen, Waltham, MA, cat. 11765054), 100 U/mL penicillin-streptomycin (Invitrogen, cat. 15140122), and 2.5% Matrigel (Corning Inc., Corning, NY, cat. 354248) for the first three passages. The 362531-283-R-J2-PDC and 782815-120-R-J1-PDC lines were cultured in 6C/Colon 1B media, which includes advanced DMEM/F-12 (Thermo Fisher Scientific, cat. 12634028), 10 mM HEPES (Thermo Fisher Scientific, cat. 15630080), 1X GlutaMAX supplement (Thermo Fisher Scientific, cat. 35050061), 0.1 mg/mL primocin (InvivoGen, San Diego, CA, cat. ant-pm-2), 10% defined fetal bovine serum, heat inactivated (HyClone Laboratories Inc., Logan, UT, cat. SH30070.03HI), 50% L-WRN conditioned media (ATCC, cat. CRL-3276), 1.25 mM N-Acetyl-L-cysteine (Sigma-Aldrich, cat. A9165), 10 mM nicotinamide (Sigma-Aldrich, cat. N0636), 1X B-27 supplement (Thermo Fisher Scientific, cat. 17504044), 1X N-2 supplement (Thermo Fisher Scientific, cat. 17502048), 50 ng/mL human EGF (Thermo Fisher Scientific, cat. PHG0311), and 10 microM Y-27632 dihydrochloride (Tocris Bioscience, cat. 1254). The K12877-001-R-J1-PDC line was cultured in 6I media, which includes all 6C/Colon 1B media plus 10 ng/mL human FGF-10 (PeproTech, cat. 100-26), 1 ng/mL human FGF-2 (PeproTech, cat. 100-18B), 1 µM prostaglandin E2 (Tocris Bioscience, cat. 2296), […] hydrocortisone (Sigma-Aldrich, cat. H4001), and […] bovine insulin (Sigma-Aldrich, cat. I6634). The K86415-001-R-J1-PDC line was cultured in 6D media, which includes all 6C/Colon 1B media components minus the L-WRN conditioned media. The 485176-168-R4-J1-PDC was cultured in PANC media, which includes all 6C/Colon 1B media plus 100 ng/mL human FGF-10 (PeproTech, cat. 100-26), 500 nM SB-431542 (Selleckchem, cat. S1067), and 10 nM gastrin (Tocris Bioscience, cat. 3006). […]
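Also: spheroids exposed to compound for seven days before readout.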
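For IC50 in this document: luminescence signal used as a proxy for viable cells.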

**Q.** For `C[C@@H](NC(=O)c1ncnc(N)c1Cl)c1ncc(C(=O)Nc2cc(C(F)(F)F)c(Cl)cn2)s1` + C=CC(=O)N1CCN(c2nc(OCC3CCCN3C)nc3c(F)c(-c4nc(N)cc(C)c4C(F)(F)F)c(Cl)cc23)C(C)C1, which IC50 (second compound 0.00316 µM) is on record?
**A.** The IC50 was under 31.6 nM.

**Q.** And the IC50 (second compound 0.01 µM)?
**A.** Its IC50 is under 31.6 nM.

**Q.** And the IC50 (second compound 0.0316 µM)?
**A.** Its IC50 is under 31.6 nM.

**Q.** What about the IC50 (second compound 0.1 µM) of the same compound?
**A.** Its IC50 is under 31.6 nM.

**Q.** What about the IC50 (second compound 0.316 µM) of the same compound?
**A.** Its IC50 is under 31.6 nM.

**Q.** What about the IC50 (second compound 1 µM) of the same compound?
**A.** Its IC50 is under 31.6 nM.

**Q.** What about the viability, T/C (second compound 0.00316 µM, first compound 0.0316 µM) of the same compound?
**A.** Its viability, T/C is 23%.

**Q.** And the viability, T/C (second compound 0.00316 µM, first compound 0.1 µM)?
**A.** Its viability, T/C is 21.9%.

**Q.** And the viability, T/C (second compound 0.00316 µM, first compound 0.316 µM)?
**A.** The viability, T/C was 19.2%.

**Q.** And the viability, T/C (second compound 0.00316 µM, first compound 1 µM)?
**A.** The viability, T/C was 25.3%.

**Q.** And the viability, T/C (second compound 0.00316 µM, first compound 3.16 µM)?
**A.** The viability, T/C was 27.4%.

**Q.** What about the viability, T/C (second compound 0.00316 µM, first compound 10 µM) of the same compound?
**A.** Its viability, T/C is 22.3%.

**Q.** What about the viability, T/C (second compound 0.01 µM, first compound 0.0316 µM) of the same compound?
**A.** Its viability, T/C is 18.3%.

**Q.** What about the viability, T/C (second compound 0.01 µM, first compound 0.1 µM) of the same compound?
**A.** The viability, T/C was 16.7%.

**Q.** What about the viability, T/C (second compound 0.01 µM, first compound 0.316 µM) of the same compound?
**A.** The viability, T/C was 24.5%.

**Q.** And the viability, T/C (second compound 0.01 µM, first compound 1 µM)?
**A.** The viability, T/C was 19.2%.

**Q.** And the viability, T/C (second compound 0.01 µM, first compound 3.16 µM)?
**A.** The viability, T/C was 22.8%.

**Q.** And the viability, T/C (second compound 0.01 µM, first compound 10 µM)?
**A.** Its viability, T/C is 20.4%.

**Q.** And the viability, T/C (second compound 0.0316 µM, first compound 0.0316 µM)?
**A.** The viability, T/C was 17.1%.

**Q.** What about the viability, T/C (second compound 0.0316 µM, first compound 0.1 µM) of the same compound?
**A.** Its viability, T/C is 17.3%.

**Q.** And the viability, T/C (second compound 0.0316 µM, first compound 0.316 µM)?
**A.** Its viability, T/C is 19.1%.

**Q.** What about the viability, T/C (second compound 0.0316 µM, first compound 1 µM) of the same compound?
**A.** Its viability, T/C is 19.3%.

**Q.** What about the viability, T/C (second compound 0.0316 µM, first compound 3.16 µM) of the same compound?
**A.** Its viability, T/C is 20.1%.

**Q.** And the viability, T/C (second compound 0.0316 µM, first compound 10 µM)?
**A.** Its viability, T/C is 18%.

**Q.** What about the viability, T/C (second compound 0.1 µM, first compound 0.0316 µM) of the same compound?
**A.** The viability, T/C was 16.3%.

**Q.** And the viability, T/C (second compound 0.1 µM, first compound 0.1 µM)?
**A.** The viability, T/C was 14.9%.

**Q.** What about the viability, T/C (second compound 0.1 µM, first compound 0.316 µM) of the same compound?
**A.** The viability, T/C was 15.8%.

**Q.** What about the viability, T/C (second compound 0.1 µM, first compound 1 µM) of the same compound?
**A.** Its viability, T/C is 18.3%.

**Q.** And the viability, T/C (second compound 0.1 µM, first compound 3.16 µM)?
**A.** Its viability, T/C is 19%.

**Q.** What about the viability, T/C (second compound 0.1 µM, first compound 10 µM) of the same compound?
**A.** Its viability, T/C is 18.5%.

**Q.** What about the viability, T/C (second compound 0.316 µM, first compound 0.0316 µM) of the same compound?
**A.** The viability, T/C was 15.5%.

**Q.** What about the viability, T/C (second compound 0.316 µM, first compound 0.1 µM) of the same compound?
**A.** Its viability, T/C is 16.1%.

**Q.** What about the viability, T/C (second compound 0.316 µM, first compound 0.316 µM) of the same compound?
**A.** The viability, T/C was 16.2%.

**Q.** What about the viability, T/C (second compound 0.316 µM, first compound 1 µM) of the same compound?
**A.** The viability, T/C was 18.5%.

**Q.** And the viability, T/C (second compound 0.316 µM, first compound 3.16 µM)?
**A.** The viability, T/C was 22.2%.

**Q.** What about the viability, T/C (second compound 0.316 µM, first compound 10 µM) of the same compound?
**A.** Its viability, T/C is 23%.

**Q.** What about the viability, T/C (second compound 1 µM, first compound 0.0316 µM) of the same compound?
**A.** Its viability, T/C is 16.7%.

**Q.** What about the viability, T/C (second compound 1 µM, first compound 0.1 µM) of the same compound?
**A.** The viability, T/C was 17.4%.

**Q.** And the viability, T/C (second compound 1 µM, first compound 0.316 µM)?
**A.** Its viability, T/C is 20.4%.

**Q.** What about the viability, T/C (second compound 1 µM, first compound 1 µM) of the same compound?
**A.** The viability, T/C was 17.2%.

**Q.** And the viability, T/C (second compound 1 µM, first compound 3.16 µM)?
**A.** The viability, T/C was 19.8%.

**Q.** What about the viability, T/C (second compound 1 µM, first compound 10 µM) of the same compound?
**A.** Its viability, T/C is 20.8%.
